According to patent US8552201B2, “5, 6-bisaryl-2-pyridine-carboxamide derivatives, preparation and application thereof in therapeutics as urotensin II receptor antagonists” (Sanofi, priority 2006, dated 2013):
Where a name gives a salt, the structure may show the parent alone.

Assays:
human GPR14 receptor = target: T1, human GPR14 receptor (Homo sapiens, UniProt Q9UKP6); test: FlipR test of intracellular calcium mobilization (CHO GPR14 cells, urotensin II 3 nM); format: cell-based; settings: CHOGPR14 cells, inhibition of urotensin II (3 nM final) induced Ca2+ increase, Fluo-4AM
T1 construct: expressed in transfected cells; host or cells: CHO cells (CHOGPR14)
T1 sequence (Q9UKP6 1-389): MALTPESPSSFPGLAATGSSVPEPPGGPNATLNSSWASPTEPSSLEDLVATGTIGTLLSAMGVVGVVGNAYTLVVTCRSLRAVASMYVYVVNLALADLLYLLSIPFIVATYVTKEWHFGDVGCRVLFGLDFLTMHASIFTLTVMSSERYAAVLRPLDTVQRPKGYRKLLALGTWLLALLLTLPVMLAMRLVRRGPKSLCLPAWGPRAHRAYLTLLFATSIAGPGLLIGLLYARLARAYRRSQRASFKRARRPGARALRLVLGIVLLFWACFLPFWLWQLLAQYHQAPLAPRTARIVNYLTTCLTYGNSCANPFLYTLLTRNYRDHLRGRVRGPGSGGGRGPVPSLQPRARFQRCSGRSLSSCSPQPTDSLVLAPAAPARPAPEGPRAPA
Excerpt: (§1) The compounds according to the invention have undergone pharmacological testing for determining the properties of the compounds of the invention, including in particular: • a test in vitro of intracellular calcium mobilization (FlipR test) employing urotensin II antagonists (the compounds of the present invention) of the human GPR14 receptor, • a function test of contraction of rat aorta rings, also employing urotensin II antagonists represented by the compounds of the present invention.
1. FlipR (Fluorometric Imaging Plate Reader) Protocol
The purpose is to measure the activation of the GPR14 receptor by human urotensin II.
GPR14 is a Gq-coupled receptor with 7 transmembrane domains. Its activation by a specific ligand causes an increase in Ca^2+ in the cell via the PLC (Phospholipase C), IP3 (Inositol-1,4,5-triphosphate) DAG (Diacylglycerol) pathway. The increase in Ca^2+ in the cell is measured by means of the Fluo4AM permeating probe (mono-excitation, mono-emission probe) which binds to free Ca^2+ and emits at 520 nm. The free probe is non-fluorescent in the absence of Ca^2+.
1) Seeding of the cells on D−1 (Day−1) or D−2
2) Incorporation/loading (D0) of the probe (1 h)
3) Addition of the products to the FlipR and measurement
4) Addition of the ligand to the FlipR and measurement in the presence of the products
5) Processing and exporting the data
The cells are cultivated in complete medium in Flask T225. For the experiments, the cells are transplanted in 200 μl of culture medium in 96-well (black, transparent-bottom) plates at a rate of 60 000 cells/well for use on D+1 or 40 000 cells/well for use on D+2.
The Fluo-4AM is prepared at 20 mM then aliquots are taken (50 μl) and stored at −20° C. away from the light. A solution of pluronic acid at 200 mg/ml in DMSO is also prepared (it has a shelf life of one week at room temperature away from the light).
The cells are charged with the Fluo-4AM+pluronic acid mixture (aliquot 50 μl+50 μl of pluronic acid) diluted to 1/100 in the measurement buffer.
After washing the wells with 150 μl of measurement buffer (cf. annex), the cells are then charged as follows: • distribution of 100 μl of measurement buffer in each well • addition of 10 μl of the Fluo-4AM+pluronic acid mixture diluted to 1/100.
The cells are incubated for 1 h at 37° C. away from the light, in an incubator in the presence of 5% CO2.
The cells are then washed 3 times with 150 μl of measurement buffer to remove the excess of the probe. A volume of 150 μl of buffer is added to each well at the end of washing.
After incubating the plates for 20 min at room temperature away from the light, they are placed in the FlipR for measurement of fluorescence.
The level of basic incorporation of the Fluo-4 is checked for each plate (sd<10%) before the first injection.
After stabilization of the basic signal, the GPR14 inhibiting compounds are injected by the FlipR under a volume of 50 μl from a dilution plate effected with Biomek 2000 in measurement buffer. […] Data recording is carried out continuously throughout the experiment.
For each plate, the basic fluorescence before injection of the compounds is standardized by the “spatial uniformity correction” function of the FlipR. The values of fluorescence measured just before injection of urotensin II (min) and those of the fluorescence measured at the peak of the effect of urotensin II (max) are exported under Excel. In each plate, a series of wells is treated with urotensin alone in the absence of inhibitor compound. The min and max fluorescence values for these wells are averaged for defining 100% effect of urotensin II. The percentage inhibition calculated for each concentration of inhibitor is calculated as follows: • for each well with Uro II (urotensin II)+inhibitor, calculation of the delta product value=max−min • for the well with Uro II alone, calculation of the value delta Uro II (average max−average min) […]

[1] = target: T2, urotensin II receptors (rat aorta rings) (Rattus norvegicus, UniProt P49684); test: Contraction of rat aorta rings induced by human urotensin II; settings: endothelium-denuded Sprague-Dawley rat aorta rings, antagonist added 30 min before urotensin II, single concentration
T2 construct: The aortas are removed, washed and, after removing the endothelium, are cut into 4 rings; from tissue; host or cells: rat thoracic aorta rings, endothelium removed (Sprague-Dawley)
T2 sequence (P49684 1-386): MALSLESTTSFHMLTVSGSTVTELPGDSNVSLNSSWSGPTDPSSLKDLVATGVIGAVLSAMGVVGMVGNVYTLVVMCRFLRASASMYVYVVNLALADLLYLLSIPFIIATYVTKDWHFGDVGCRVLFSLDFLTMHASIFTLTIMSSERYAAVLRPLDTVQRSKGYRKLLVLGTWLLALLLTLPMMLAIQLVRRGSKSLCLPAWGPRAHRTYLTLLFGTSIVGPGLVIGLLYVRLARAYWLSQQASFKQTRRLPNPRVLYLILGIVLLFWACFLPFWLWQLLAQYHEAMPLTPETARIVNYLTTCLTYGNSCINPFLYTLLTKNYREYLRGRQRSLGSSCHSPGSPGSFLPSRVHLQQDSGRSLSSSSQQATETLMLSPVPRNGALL
Excerpt: as §1
2. Contraction of Rat Aorta
Male Sprague-Dawley rats (400-500 g; C. River, France) are anaesthetized with 6% sodium pentobarbital (Ceva SantéAnimale) by intraperitoneal injection (0.4-0.5 ml), and then euthanized by exsanguination. The aortas are removed, washed and, after removing the endothelium, are cut into 4 rings of about 0.2-0.3 cm. Each fragment is placed in a container for isolated organs, containing 20 mL of Krebs solution with the following composition (mM): NaCl 118; KCl 4.7; MgCl2 1.2; CaCl2 2.6; NaHCO3 25; glucose 11.1; (pH=7.4).
The tissue, maintained at 37° and aerated with a stream of carbogen (95% O2-5% CO2), is connected to a Grass FT03 isometric sensor under a basic strain of 2 g, and to a Gould series 6600 amplifier for recording the variations in strain. Data acquisition is effected automatically on an HP Compaq PC using IOX software (version 2.2) from the company Emka.
After stabilization for 60 min, the viability of the preparation is tested by prestimulation with 60 mM of KCl. This contraction is repeated a second time and the strain that developed will serve as reference (100%) for standardizing the response to urotensin II.
The curve of concentration v. contractile response to urotensin II is then constructed cumulatively until a maximum response is obtained.
A single concentration-response curve is recorded owing to the desensitization effects induced by urotensin II.
The antagonists or the vehicle (DMSO 0.15% maximum) are added to the container 30 min before the agonist.
Human urotensin II is obtained from Bachem Ltd (UK) and is dissolved in 0.1% of BSA.
The responses are expressed as percentage of the maximum contraction observed with KCl. The results represent the mean+/−sem of the individual responses. N corresponds to the number of animals per batch.
Analysis of the sigmoid curves using the Everstat software (De Lean A, Munson P J, Rodbard D., Am J Physiol 1978; 235(2): E97-102.) permitted the EC50 (concentration producing 50% of the maximum response) and the Emax (maximum effect) to be determined.
To evaluate the potency of the antagonists based on a single concentration, the pKb were calculated according to the equation: pKb=−log [antagonist]M+log(concentration-ratio−1) (Furchgott R F, Blaschko H, Muscholl E, editors. Handbook of Exp Pharmacol, Catecholamines, Springer, Berlin Heidelberg N.Y.; 1972; 33:283-335) where concentration-ratio is the EC50 of the agonist in the presence of the antagonist divided by the EC50 of the agonist in the absence of the antagonist.
If several concentrations of antagonist are tested, the pA2 (±confidence limits) is calculated by the Schild plot method (Arunlakshana O and Schild H O, Br J Pharmacol, 1959; 14:48-58).

SMILES | IC50 (human GPR14 receptor) | Kb [1] | melting point
Cc1ccccc1-c1ccc(C(=O)NC2(C(=O)O)C3CC4CC(C3)CC2C4)nc1-c1ccc(Cl)c(OCCCN(C)C)c1 (stereo not shown) [Compound No. 18, 2-({[6-{4-Chloro-3-[3-(dimethylamino)propoxy]phenyl}-5-(2-methylphenyl)pyridin-2-yl]carbonyl}amino)adamantane-2-carboxylic acid hydrochloride] | 19 nM | 316 nM | 
Cc1ccccc1-c1ccc(C(=O)NC2(C(=O)O)CCCCC2)nc1-c1ccc(Cl)c(OCCCN(C)C)c1.Cl [compound 34, 1-({[6-{4-Chloro-3-[3-(dimethylamino)propoxy]phenyl}-5-(2-methylphenyl)pyridin-2-yl]carbonyl}amino)cyclohexanecarboxylic acid hydrochloride] | 25 nM | 79.4 nM | 146 to 150 °C
Cc1ccccc1-c1ccc(C(=O)N[C@@H](CC(=O)O)C(C)C)nc1-c1ccc(Cl)c(OCCCN(C)C)c1 [compound 37] | 72 nM | 31.6 nM | 
Cc1cccnc1-c1ccc(C(=O)NC2(C(=O)O)CCCCC2)nc1-c1ccc(Cl)c(OCCCN(C)C)c1 [compound 58] | 28 nM | 251 nM | 
Cc1ncccc1-c1ccc(C(=O)NC2(C(=O)O)CCCCC2)nc1-c1ccc(Cl)c(OCCCN(C)C)c1 [compound 61] | 9 nM | 79.4 nM | 
CN(C)CCCOc1cc(-c2nc(C(=O)NC3(C(=O)O)CCCCC3)ccc2-c2ncc(Cl)cc2Cl)ccc1Cl [compound 65, 1-{[(3,5-Dichloro-2′-{4-chloro-3-[3-(dimethylamino)propoxy]phenyl}-2,3′-bipyridin-6′-yl)carbonyl]amino}cyclohexanecarboxylic acid hydrochloride] | 32 nM | 316 nM | 
Cc1ccc(-c2ccc(C(=O)NC3(C(=O)O)CCCCC3)nc2-c2ccc(Cl)c(OCCCN(C)C)c2)c(C)c1 [compound 66, 1-({[6-{4-Chloro-3-[3-(dimethylamino)propoxy]phenyl}-5-(2,4-dimethylphenyl)pyridin-2-yl]carbonyl}amino)cyclohexanecarboxylic acid hydrochloride] | 4.2 nM | 200 nM | 
CCc1ccccc1-c1ccc(C(=O)NC2(C(=O)O)CCCCC2)nc1-c1ccc(Cl)c(OCCCN(C)C)c1 [compound 67] | 13 nM | 200 nM | 
Cc1ccc(C)c(-c2ccc(C(=O)NC3(C(=O)O)CCCCC3)nc2-c2ccc(Cl)c(OCCCN(C)C)c2)c1 [compound 70] | 32 nM | 631 nM | 
Cc1ccccc1-c1ccc(C(=O)NC2(C(=O)O)CCCCCC2)nc1-c1ccc(Cl)c(OCCCN(C)C)c1 [compound 71] | 24 nM | 501 nM | 
Cc1cc(C)n(-c2ccc(C(=O)NC3(C(=O)O)CCCCC3)nc2-c2ccc(Cl)c(OCCCN(C)C)c2)n1 [compound 75, 1-({[6-{4-Chloro-3-[3-(dimethylamino)propoxy]phenyl}-5-(3,5-dimethyl-1H-pyrazol-1-yl)pyridin-2-yl]carbonyl}amino)cyclohexanecarboxylic acid hydrochloride] | 21 nM | 251 nM | 
COc1ccc(-c2ccc(C(=O)NC3(C(=O)O)CCCCC3)nc2-c2ccc(Cl)c(OCCCN(C)C)c2)c(Cl)c1 [compound 79] | 31 nM | 158 nM | 
Cc1ccc(C(C)C)cc1-c1ccc(C(=O)NC2(C(=O)O)CCCCC2)nc1-c1ccc(Cl)c(OCCCN(C)C)c1 [compound 120] | 16 nM | 79.4 nM | 
Cc1ccc(-c2ncc(C(=O)NC3(C(=O)O)CCCCC3)nc2-c2ccc(Cl)c(OCCCN(C)C)c2)c(C)c1 [compound 123] | 4.2 nM | 316 nM | 
Cc1ccccc1-c1nc(N)c(C(=O)NC2(C(=O)O)CCCCC2)nc1-c1ccc(Cl)c(OCCCN(C)C)c1 [compound 129, 1-({[3-amino-6-{4-chloro-3-[3-(dimethylamino)propoxy]phenyl}-5-(2-methylphenyl)pyrazin-2-yl]carbonyl}amino)cyclohexanecarboxylic acid hydrochloride] | 15 nM | 158 nM | 
